Data: US7935366B2 (priority 2006, dated 2011)
Where two headings read alike, the source gives them in different places.

Columns and labels:
[1] = format: in vivo; settings: 24 h post ip. ^131I; stable iodine given 2 h post ^131I
[2] = format: in vivo; settings: stable iodine equivalent to 100 mg/70 Kg adult per day administered orally, 2 h post i.p. ^131I
[3] = format: in vivo; settings: stable iodine equivalent to 100 mg/70 Kg adult per day mixed with diet, 2 h post i.p. ^131I
[4] = format: in vivo; settings: rats; 24 h post oral ^131I; stable iodide equivalent to 100 mg/70 Kg adult given orally 2 h post ^131I
[5] = Percent binding capacity of *Cs at different pH; format: physicochemical
[6] = tested on: DNA damage; settings: FIG. 3
[7] = experimental animals
[8] = some subjects; cited from earlier work
[9] = tested on: rat bone marrow erythrocytes; format: in vivo; settings: FIG. 2
Source text: […]. The geno-toxicity assessment of [CaK2Fe(CN)6] and Prussian Blue for the formation of micronuclei (i.e. part of parent nucleus, which is left behind in the cytoplasm as a daughter nuclei, due to damage to chromosomes during cell division).

[10] = Whole body retention of ^137Cs, CKF vs Prussian Blue; format: in vivo

## [K+].[O-][I+2]([O-])[O-] [KIO3]
[1]
  Percent ^131I WBR: 40 ± 2%
  Percent ^131I in BLOOD: 1.6 ± 0.4%
  Percent ^131I in CARCAS: 17 ± 2%
  Percent ^131I in EXCRETA: 64 ± 5%
  Percent ^131I in LIVER + GUT: 16 ± 1%
  Percent ^131I in THYROID: 10 ± 1%
[2]; day 1
  WHOLE BODY RETENTION OF RADIO-IODINE: 28 ± 4
[2]; day 2
  WHOLE BODY RETENTION OF RADIO-IODINE: 12 ± 2
[2]; day 3
  WHOLE BODY RETENTION OF RADIO-IODINE: 10 ± 3
[2]; day 4
  WHOLE BODY RETENTION OF RADIO-IODINE: 8 ± 1
[2]; day 5
  WHOLE BODY RETENTION OF RADIO-IODINE: 7 ± 2
[2]; day 6
  WHOLE BODY RETENTION OF RADIO-IODINE: 7 ± 4
[2]; day 7
  WHOLE BODY RETENTION OF RADIO-IODINE: 8 ± 2
[2]; day 9
  WHOLE BODY RETENTION OF RADIO-IODINE: 6 ± 2
[3]; day 1
  WHOLE BODY RETENTION OF RADIO-IODINE: 28 ± 3
[3]; day 2
  WHOLE BODY RETENTION OF RADIO-IODINE: 12 ± 2
[3]; day 3
  WHOLE BODY RETENTION OF RADIO-IODINE: 10 ± 4
[3]; day 4
  WHOLE BODY RETENTION OF RADIO-IODINE: 8 ± 2
[3]; day 5
  WHOLE BODY RETENTION OF RADIO-IODINE: 7 ± 3
[3]; day 6
  WHOLE BODY RETENTION OF RADIO-IODINE: 7 ± 1
[3]; day 7
  WHOLE BODY RETENTION OF RADIO-IODINE: 8 ± 2
[3]; day 9
  WHOLE BODY RETENTION OF RADIO-IODINE: 6 ± 3
[3]; day 10
  WHOLE BODY RETENTION OF RADIO-IODINE: 3 ± 4
[3]; day 11
  WHOLE BODY RETENTION OF RADIO-IODINE: 2 ± 1
[3]; day 13
  WHOLE BODY RETENTION OF RADIO-IODINE: 2 ± 2
[3]; day 14
  WHOLE BODY RETENTION OF RADIO-IODINE: 1 ± 1
[4]
  Percent ^131I WBR: 14 ± 3 percent administered dose
  Percent ^131I in BLOOD: 0.6 ± 0.05 percent administered dose
  Percent ^131I in CARCAS: 8 ± 0.5 percent administered dose
  Percent ^131I in EXCRETA: 81 ± 1 percent administered dose
  Percent ^131I in LIVER + GUT: 7 ± 0.5 percent administered dose
  Percent ^131I in THYROID: 4 ± 0.5 percent administered dose

## [C-]#N.[C-]#N.[C-]#N.[C-]#N.[C-]#N.[C-]#N.[C-]#N.[C-]#N.[C-]#N.[C-]#N.[C-]#N.[C-]#N.[C-]#N.[C-]#N.[C-]#N.[C-]#N.[C-]#N.[C-]#N.[Fe+2].[Fe+2].[Fe+2].[Fe+3].[Fe+3].[Fe+3].[Fe+3] [PB, ferric hexa-cyanoferrate (II)]
[5]; FIG. 4, neutral pH
  binding with *Cs: weaker binding
[5]; pH 2
  PERCENT BINDING CAPACITY of *Cs: 27 ± 2%
[5]; pH 3
  PERCENT BINDING CAPACITY of *Cs: 58 ± 0.7%
[5]; pH 4
  PERCENT BINDING CAPACITY of *Cs: 75 ± 0.4%
[5]; pH 5
  PERCENT BINDING CAPACITY of *Cs: 75 ± 0.3%
[5]; pH 6
  PERCENT BINDING CAPACITY of *Cs: 67 ± 0.6%
[5]; pH 7
  PERCENT BINDING CAPACITY of *Cs: 59 ± 0.9%
[6]
  DNA damage in alkaline comet assay: do not induce any apparent DNA damage
[7]
  gastro-intestinal and cardio-toxicity (histo-pathologic changes): induces gastro-intestinal and cardio-toxicity
[8]
  constipation: induce constipation in some subjects
[9]; all the tested doses
  micronuclei formation, means±SE versus control: not significantly different from control
[9]; dose of 5 mg/100 g BW (equivalent to 3.5 g/d/70 Kg adult)
  geno-toxicity, micronuclei formation: did not induce any toxicity
[9]; five and ten times the dose of 5 mg/100 g BW
  geno-toxicity, micronuclei formation: marginal increase in the formation of micronuclei
[10]; day 0
  WHOLE BODY RETENTION - ^137Cs: 100 percent administered dose
[10]; day 1
  WHOLE BODY RETENTION - ^137Cs: 61 ± 10 percent administered dose
[10]; day 4
  WHOLE BODY RETENTION - ^137Cs: 31 ± 4 percent administered dose
[10]; day 8
  WHOLE BODY RETENTION - ^137Cs: 21 ± 3 percent administered dose
[10]; day 12
  WHOLE BODY RETENTION - ^137Cs: 15 ± 2 percent administered dose
[10]; day 16
  WHOLE BODY RETENTION - ^137Cs: 11 ± 2 percent administered dose
[10]; day 20
  WHOLE BODY RETENTION - ^137Cs: 7 ± 1 percent administered dose
[10]; day 24
  WHOLE BODY RETENTION - ^137Cs: 6 ± 1 percent administered dose
[10]; day 28
  WHOLE BODY RETENTION - ^137Cs: 5 ± 1 percent administered dose
[10]; experimental animals
  speed of removing *Cs from in vivo system: slow
